In data set [1] the test system is SARS-CoV-2 virions. The following applies: 2 h at 37° C., below the limit of detection.
The subject of data set [2] is SARS-CoV-2. Kind of data set: CPE reduction assay in Vero E6 cells with pharmaceutical formulations (Example 8). It counts as cell-based. The following applies: for inhibitory / antiviral effect in CPE reduction assay: FIGS. 7D-7E.
Data set [3] has as its system SARS-CoV-2. The experiment in a line: CPE reduction assay in Vero E6 cells with pharmaceutical formulations dissolved in DMSO (Example 6). Format: cell-based. The following applies: Severe acute respiratory syndrome coronavirus 2, Vero C1008, 72 h; Vero E6, MOI 0.015, three days, pharmaceutical formulation in DMSO, estimated concentrations; read-out: EC50, inhibition of virus-induced cell death.

In data set [4] the test system is SARS-CoV-2. Kind of data set: microbe, parasite or virus in culture. Format: cell-based.
Data set [5] is described as follows: Phase 2b study in de novo kidney transplant recipients (Example 3). It counts as in vivo, human. The following applies: for blood trough level: standard dose 0.05 mg/kg BID. The method, then: De novo kidney transplant recipients were enrolled into a 6 month, Phase 2b, multi-center, randomized, open-label study. […] In addition, all subjects received induction immunosuppression with intravenous daclizumab or basiliximab (dosed per product labeling) and received concomitant treatment during the study with MMF and corticosteroids. […] Adverse reactions were recorded and renal graft rejection was assessed based on Banff classification. At 3-month and 6-month time points, adverse reactions were analyzed. Graft survival and patient survival were also recorded at the 6-month time point.

Data set [6] concerns SARS-CoV-2. The settings on record: HuH7.5, Calu-3 and Vero cells; Dittmar et al.; cited from earlier work.
For data set [7], the system named is SARS-CoV-2. Format: cell-based. The following applies: 3.2 μM, glass labware, Calu-3, 24 h p.i., FIG. 6A.
The test system of data set [8] is Calu-3 cells. The settings on record: plastic, Calu-3, FIG. 6D.
Data set [9] in a line: Binding to plastic labware (coated or uncoated 96-well plates), remaining concentration by LC-MS/MS (Example 12). Format: physicochemical. The following applies: plastic labware. The method, then:
Plastic labware was coated with three different coating agents: 100 mg/ml bovine serum albumin in PBS (BSA; Sigma), 1% polyethylene glycol 3350 in MilliQ water (PEG-3350; Sigma) and 0.2% polysorbate 40 in MilliQ water (Tween40; Fluka). In addition, the plastic materials with VCS by treating them with a 500 mM VCS solution in DMSO (Sigma). Labware, including all tubes, tips and culture plastics, was filled with blocking solution and incubated for 2 h at room temperature with rocking to homogenously coat the surfaces. After rinsing twice with MilliQ water, the items were left to dry at room temperature until further use in experiments. Solutions of 0.2 and 2 μM of VCS were prepared in EMEM-2% FCS and 100 μl of each VCS solution was incubated in coated 96-well plates. After a 2 h incubation at 37° C. the remaining VCS concentration was measured by validated LC-MS/MS.

The subject of data set [10] is Vero E6 cells. The following applies: Vero E6, 3 days.
The subject of data set [11] is SARS-CoV-2. The experiment in a line: microbe, parasite or virus in culture. It counts as cell-based. The settings on record: Severe acute respiratory syndrome coronavirus 2, Vero C1008; solutions prepared from pure powder; read-out: EC50, inhibition of SARS-CoV-2 in Vero E6 cells.

Read-outs that look alike come from different tables or passages of the source. Where only a bound is given, the exact number is not on record here.

For the compound `CCO` [50% ethanol, ethanol], in [1], the “amount of infectious SARS-CoV-2 remaining” value is listed as < 100 PFU/ml.
Turning to `COc1c(C)c2c(c(O)c1C/C=C(\C)CCC(=O)OCCN1CCOCC1)C(=O)OC2` [MMF, mycophenolate mofetil], the “inhibitory / antiviral effect in CPE reduction assay” value in [2] is listed as “apparent antiviral effect”.
For `COc1c(C)c2c(c(O)c1C/C=C(\C)CCC(=O)O)C(=O)OC2` [mycophenolate, mycophenolic acid], in data set [3], the EC50 – broadly, the concentration that produces a half-maximal response – is 3.1 µM.
For the compound `C=CC[C@@H]1/C=C(\C)C[C@H](C)C[C@H](OC)[C@H]2O[C@@](O)(C(=O)C(=O)N3CCCC[C@H]3C(=O)O[C@H](/C(C)=C/[C@@H]3CC[C@@H](O)[C@H](OC)C3)[C@H](C)[C@@H](O)CC1=O)[C@H](C)C[C@@H]2OC` [tacrolimus, reference compound], the EC50 in data set [3] was 12 µM; in data set [4] (Severe acute respiratory syndrome coronavirus 2, Vero C1008, FIG. 1C, Vero E6 CPE reduction, read-out: EC50 inhibition of SARS-CoV-2) it was ~25 µM; in data set [2] (Severe acute respiratory syndrome coronavirus 2, Vero C1008, 72 h, Vero E6, 3 days, read-out: EC50, inhibition of virus-induced cell death), 10 ± 1 µM; in data set [11], ~15 µM. Also, the “protection of infected cells from virus-induced cytopathic effects” value in [4] (dosages up to 25 μM) was “did not protect”. Moreover, the blood trough level was 7 to 20 ng/mL in data set [5] (months 0-3) and 5 to 15 ng/mL in data set [5] (months 0-6 as printed). For the same compound, the “Nankivell eGFR” value in [5] (standard dose group) came out at 69 mL/min. Besides, the Graft survival in data set [5] (standard dose, 6 month) was 97.7%. Moreover, the “NODAT (new onset of diabetes after transplant) incidence” value in data set [5] (standard dose, 6 month) stood at 16.4%; in data set [5] (standard dose, 6 month, listed as Tacrolimus), 16.4%. The compound further registered a Patient survival in data set [5] (standard dose, 6 month) of 97.7%. Also, the “Central BPAR (biopsy proven acute rejection), patients (incidence)” value in data set [5] (standard dose, N = 86, 6 month post-transplantation) is reported as 5 (5.8%). For the same compound, the “activity on SARS-CoV-2 replication in a previous report” value in data set [6] is given as “no activity”. Also, the “reduction in SARS-CoV-2 infectious progeny titers” value in data set [7] was ~0.5 log. Besides, in [8], the cytotoxicity result is “did not display much cytotoxicity”. Moreover, the Conc worked out at 850 nM in data set [9] (0.8 μM stock solution, 0 h) and 650 nM in data set [9] (0.8 μM stock solution, 2 h). The “% rem” value in [9] (0.8 μM stock solution, 2 h) was 76%. Also, the “loss by binding to plastic” value in data set [9] (2 h) worked out at 24%. In addition, the entries for the “concentration after which compound-related cytotoxicity was observed” value in [10] and in data set [10] (listed as Tacrolimus) were “above 25 μM” and > 25000 nM, respectively.
Consider `CO[C@H]1C[C@@H]2CC[C@@H](C)[C@@](O)(O2)C(=O)C(=O)N2CCCC[C@H]2C(=O)O[C@H]([C@H](C)C[C@@H]2CC[C@@H](OCCO)[C@H](OC)C2)CC(=O)[C@H](C)/C=C(\C)[C@@H](O)[C@@H](OC)C(=O)[C@H](C)C[C@H](C)/C=C/C=C/C=C/1C` [EVL, everolimus], for which, in [2], the “inhibitory / antiviral effect in CPE reduction assay” value is given as “did not show an inhibitory effect”.

The values above are taken from US20230183293A1, “METHODS OF TREATING OR PREVENTING CORONAVIRUS INFECTION” (priority 2021, published 2023).
